As usually defined, the IC50 is the midpoint of a concentration-inhibition curve.

Test [1] has as its system spontaneously hypertensive rats (SHR). The test is described as follows: Antihypertensive Activity: Spontaneously Hypertensive Rat (SHR test). The class given is in vivo, rat (male spontaneously hypertensive). The settings on record: Rattus norvegicus, p.o. or i.v., read-out: SHR TEST: change in blood pressure (delta % of control); for change in vivo at 5 mg/kg: dose 5 mpk. The method, then: Mean arterial pressure and heart rate were monitored from directly cannulated animals. Compounds were administered p.o. or i.v. and blood pressure was recorded for various time intervals post dosing.
Blood pressure changes (expressed as change in control pressure and reported as delta % of control for each animal) were analyzed statistically using a one way analysis of variance with a Dunnett's test. P values less than 0.05 were considered significant.

Test [2] relates to alpha adrenergic receptor. The test is described as follows: Alpha-1 Adrenergic Blockage: Inhibition of Phenylephrine-Induced Increases in Blood Pressure in the Anesthetized Dog. Particulars: dose 0.03 mpk, i.v., phenylephrine 10 μg/kg. The class given is in vivo. The text has this: Dogs were anesthetized and bilaterally vagotomized. A femoral artery and vein were cannulated for detection of diastolic blood pressure and drug administration, respectively. Percent inhibition of alpha adrenergic receptor antagonism was quantified by determining dose-response (increase in diastolic pressure) relationship of phenylephrine before and after various doses of the antagonist.

In the next test the target is T1, 5HT2 receptor (Rattus norvegicus, UniProt P14842).
T1 construct: Membrane fragments were prepared from the frontal cortex dissected from brains obtained from female rats; from tissue; host or cells: frontal cortex, female rats
T1 sequence (P14842 whole entry, the tested form may be a part): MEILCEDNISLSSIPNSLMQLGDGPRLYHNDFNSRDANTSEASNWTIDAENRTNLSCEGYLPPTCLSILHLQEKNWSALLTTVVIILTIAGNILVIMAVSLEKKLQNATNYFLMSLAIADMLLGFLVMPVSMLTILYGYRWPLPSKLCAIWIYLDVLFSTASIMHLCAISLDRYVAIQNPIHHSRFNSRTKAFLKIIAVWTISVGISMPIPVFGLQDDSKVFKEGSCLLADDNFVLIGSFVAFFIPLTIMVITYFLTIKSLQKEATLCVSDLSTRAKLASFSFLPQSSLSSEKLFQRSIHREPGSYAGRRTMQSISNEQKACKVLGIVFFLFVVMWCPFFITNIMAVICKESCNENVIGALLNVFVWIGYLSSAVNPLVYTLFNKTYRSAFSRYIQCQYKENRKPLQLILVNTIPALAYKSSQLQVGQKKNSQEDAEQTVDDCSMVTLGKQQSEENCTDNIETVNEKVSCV
As to the kind of experiment: Brain Serotonin 5HT2 Radioreceptor Assay (3H-ketanserin). The class given is binding. The settings on record: for IC50: rat frontal cortex membranes, 15 minutes, 37° C., read-out: RECEPTOR BINDING 5HT-2 (IC50). How it is done: Membrane fragments were prepared from the frontal cortex dissected from brains obtained from female rats (~150 g). The 5HT2 sites were labeled with ^3 H-ketanserin. Membrane fragments, ^3 H-ketanserin and an unlabeled test compound were incubated for 15 minutes at 37° C. Compound bound to the receptor site was separated from the remaining unbound compound by vacuum filtration.
The ability of a nonlabeled compound to compete with ^3 H-ketanserin for binding sites was a measure of the compound's affinity for the 5HT2 receptor. Specific binding was determined by the difference between total counts bound and counts bound in the presence of 10^-6 M methysergide.
Data are presented as the IC50, the concentration of nonlabeled compound required to displace 50% of the ^3 H-ketanserin specifically bound to 5HT2 binding sites.

For test [3], the target named is alpha-1 adrenergic receptor. The test is described as follows: Brain Alpha-1 Radioreceptor Assay (3H-prazosin). The settings on record: guinea pig brain membranes, 30 minutes, 30° C., read-out: RECEPTOR BINDING ALPHA-1 (IC50). The method, then: Membrane fragments were prepared from the brains of mature female guinea pigs after removal of the corpus striata. The alpha-1 adrenergic receptor sites were labeled with ^3 H-prazosin. Membrane fragments, ^3 H-prazosin and an unlabeled test compound were incubated for 30 minutes at 30° C. Compound bound to the receptor site was separated from the remaining unbound radioligand by vacuum filtration. Specific binding was determined by the difference between total counts bound and counts bound in the presence of 10-^5 M phentolamine.

For the next test, the target named is T2, 5HT1A receptor (Rattus norvegicus, UniProt P19327).
T2 construct: Membrane fragments were prepared from the frontal cortex dissected from brains obtained from female rats; from tissue; host or cells: frontal cortex, female rats
T2 sequence (P19327 1-422): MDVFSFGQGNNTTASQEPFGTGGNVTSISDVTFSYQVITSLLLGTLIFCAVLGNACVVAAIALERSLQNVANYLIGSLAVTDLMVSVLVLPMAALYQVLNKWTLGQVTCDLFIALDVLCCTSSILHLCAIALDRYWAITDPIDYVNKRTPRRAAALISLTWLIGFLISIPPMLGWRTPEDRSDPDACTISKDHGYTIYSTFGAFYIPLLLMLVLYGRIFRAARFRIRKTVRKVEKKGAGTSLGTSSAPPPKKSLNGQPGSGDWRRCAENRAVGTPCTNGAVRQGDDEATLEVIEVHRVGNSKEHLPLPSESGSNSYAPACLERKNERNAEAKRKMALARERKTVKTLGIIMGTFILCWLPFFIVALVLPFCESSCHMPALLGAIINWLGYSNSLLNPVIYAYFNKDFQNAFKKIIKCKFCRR
The test is described as follows: Brain Serotonin 5HT1A Radioreceptor Assay (3H-80H-DPAT). Type of test: binding. Particulars: for IC50: rat frontal cortex membranes, 10 minutes, 37° C., read-out: RECEPTOR BINDING 5HT-1A (IC50). How it is done: Membrane fragments were prepared from the frontal cortex dissected from brains obtained from female rats (~150 g). The 5HT1A sites were labeled with ^3 H-80H-dipropylaminotetralin (^3 H-80H-DPAT). Membrane fragments, ^3 H-80H-DPAT and an unlabeled test compound were incubated for 10 minutes at 37° C. The tubes were then placed in an ice bath for an additional 10 minutes. Compound bound to the receptor site was separated from the remaining unbound compound by vacuum filtration.
The ability of a nonlabeled compound to compete with ^3 H-80H-DPAT for binding sites was a measure of the compound's affinity for the 5HT1A receptor. Specific binding was determined by the difference between total counts bound and counts bound in the presence of 10^-5 M serotonin.
Data are presented at the IC50, the concentration of nonlabeled compound required to displace 50% of the ^3 H-80H-DPAT specifically bound to 5HT1A binding sites.

Regarding `COc1ccccc1N1CCN(CCn2c(=O)c3c(C)sc4c3n(c2=O)CCC4O)CC1` (stereo not shown) [Example 23, 3,4,5,7,8,9-Hexahydro-9-hydroxy-4-[2-[4-(2-methoxyphenyl)piperazin-1-yl]ethyl]-2-methyl-thieno[4,3,2-de]pyrido[1,2-c]pyrimidine-3,5-dione], in test [1], the change in vivo at 5 mg/kg was -27.4%.

Take `COc1ccccc1N1CCN(CCn2c(=O)c3csc4c3n(c2=O)CCC4OC(=O)c2ccc(Cl)cc2)CC1` (stereo not shown) [Example 37, 9-(4-Chlorobenzoyloxy)-3,4,5,7,8,9-hexahydro-4-[2-[4-(2-methoxyphenyl)piperazin-1-yl]ethyl]thieno[4,3,2-de]pyrido[1,2-c]pyrimidine-3,5-dione]: the change in vivo at 5 mg/kg in test [1] was -30.2%.

Consider `O=C1CCn2c(=O)n(CCN3CCN(c4ccccc4)CC3)c(=O)c3csc1c32` [Example 4, 3,4,5,7,8,9-Hexahydro-4-[2-(4-phenylpiperazin-1-yl)ethyl]thieno[4,3,2-de]pyrido[1,2-c]pyrimidine-3,5,9-trione], for which, in test [2], the “% INHIB OF PHENYLEPHRINE RESPONSE” value is 88%.

As for `CCCCCC(=O)OC1CCn2c(=O)n(CCN3CCN(c4ccccc4OC)CC3)c(=O)c3csc1c32` (stereo not shown) [Example 32, 3,4,5,7,8,9-Hexahydro-4-[2-[4-(2-methoxyphenyl)piperazin-1-yl]ethyl]-9-(hexanoyloxy)thieno[4,3,2-de]pyrido[1,2-c]pyrimidine-3,5-dione], the “% INHIB OF PHENYLEPHRINE RESPONSE” value in test [2] turned out to be 90%.

For `COc1ccc(C(=O)OC2CCn3c(=O)n(CCN4CCN(c5ccccc5OC)CC4)c(=O)c4csc2c43)cc1` (stereo not shown) [Example 36, 3,4,5,7,8,9-Hexahydro-9-(4-methoxy)benzoyloxy-4-[2-[4-(2-methoxyphenyl)piperazin-1-yl]ethyl]thieno[4,3,2-de]pyrido[1,2-c]pyrimidine-3,5-dione], in test [1], the change in vivo at 5 mg/kg was -14%.

Take `COc1ccccc1N1CCN(CCn2c(=O)c3c(C)sc4c3n(c2=O)CCC4=O)CC1` [Example 13, 3,4,5,7,8,9-Hexahydro-2-methyl-4-[2-[4-(2-methoxyphenyl)piperazin-1-yl]ethyl]thieno[4,3,2-de]pyrido[1,2-c]pyrimidine-3,5,9-trione]: the “% INHIB OF PHENYLEPHRINE RESPONSE” value in test [2] turned out to be 88%.

Turning to `O=C1CCn2c(=O)n(CCN3CCN(c4ccccc4Cl)CC3)c(=O)c3csc1c32` [Example 3, 4-[2-[4-(2-Chlorophenyl)piperazin-1-yl]ethyl]3,4,5,7,8,9-hexahydrothieno[4,3,2-de]pyrido[1,2-c]pyrimidine-3,5,9-trione], the “% INHIB OF PHENYLEPHRINE RESPONSE” value in test [2] turned out to be 55%.

On to `COc1cccc(N2CCN(CCn3c(=O)c4csc5c4n(c3=O)CCC5=O)CC2)c1` [Example 5, 3,4,5,7,8,9-Hexahydro-4-[2-[4-(3-methoxyphenyl)piperazin-1-yl]ethyl]thieno[4,3,2-de]pyrido[1,2-c]pyrimidine-3,5,9-trione], for which the “% INHIB OF PHENYLEPHRINE RESPONSE” value in test [2] is given as 41%.

As for `CCCC(=O)OC1CCn2c(=O)n(CCN3CCN(c4ccccc4OC)CC3)c(=O)c3csc1c32` (stereo not shown) [Example 31], the “% INHIB OF PHENYLEPHRINE RESPONSE” value in test [2] is given as 100%.

In the case of `COc1ccccc1N1CCN(CCn2c(=O)c3csc4c3n(c2=O)CCCC4=O)CC1` [Example 15, 4,7,8,9-Tetrahydro-4-[2-[4-(2-methoxyphenyl)-piperazin-1-yl]ethyl]thieno[4,3,2-de]pyrimido[3,4-a]azepine-3,5,10-trione], the change in vivo at 5 mg/kg in test [1] was -29.8%.

For `O=C1CCn2c(=O)n(CCN3CCN(c4ccc(F)cc4)CC3)c(=O)c3csc1c32` [Example 9, 3,4,5,7,8,9-Hexahydro-4-[2-[4-(4-fluorophenyl)piperazin-1-yl]ethyl]thieno[4,3,2-de]pyrido[1,2-c]pyrimidine-3,5,9-trione], the change in vivo at 5 mg/kg in test [1] is -21.5%.

For `COc1ccccc1N1CCN(CCn2c(=O)c3csc4c3n(c2=O)CCC4OC(=O)C(C)(C)C)CC1` (stereo not shown) [Example 34, 3,4,5,7,8,9-Hexahydro-4-[2-[4-(2-methoxyphenyl)piperazin-1-yl]ethyl]-9-[(2,2-dimethyl)propanoyloxy]thieno[4,3,2-de]pyrido[1,2-c]pyrimidine-3,5-dione], in test [1], the change in vivo at 5 mg/kg was -26%.

As to `COc1ccc(N2CCN(CCn3c(=O)c4csc5c4n(c3=O)CCC5=O)CC2)cc1` [Example 8, 3,4,5,7,8,9-Hexahydro-4-[2-[4-(4-methoxyphenyl)piperazin-1-yl]ethyl]thieno[4,3,2-de]pyrido[1,2-c]pyrimidine-3,5,9-trione], the “% INHIB OF PHENYLEPHRINE RESPONSE” value in test [2] was 40%.

As to `COc1ccccc1N1CCN(CCn2c(=O)c3scc4c3n(c2=O)CCC4=O)CC1` [Example 14, 7.8-Dihydro-4-[2-[4-(2-methoxyphenyl)-piperazin-1-yl]ethyl]thieno[2,3,4-de]pyrido[1,2-c]pyrimidine-3,5,9-trione], the IC50 at 5HT2 receptor came out at 1500 nM; in test [3] it was 6 nM; on 5HT1A receptor, 66 nM. The change in vivo at 5 mg/kg in test [1] is -30%.

`O=C1CCn2c(=O)n(CCN3CCC(=C(c4ccc(F)cc4)c4ccc(F)cc4)CC3)c(=O)c3csc1c32` [Example 20, 4-[2-[4-[Bis(4-fluorophenyl)methylene]piperidin-1-yl]ethyl]-3,4,5,7,8,9-hexahydrothieno[4,3,2-de]pyrimidine-3,5,9-trione]: the half-inhibitory concentration (IC50) on 5HT2 receptor was determined as 180 nM; in test [3] it was 22000 nM. Also, the inhibition at 1 µM at 5HT1A receptor (@ 10^-6, rat frontal cortex membranes, read-out: RECEPTOR BINDING 5HT-1A, % @ 10^-6) stood at 47%.

As for `COc1ccccc1N1CCN(CCn2c(=O)c3csc4c3n(c2=O)CCC4N)CC1` (stereo not shown) [Example 38, 9-Amino-3,4,5,7,8,9-hexahydro-4-[2-[4-(2-methoxyphenyl)piperazin-1-yl]ethyl]thieno[4,3,2-de]pyrido[1,2-c]pyrimidine-3,5-dione], the IC50 on 5HT2 receptor came out at 800 nM; in test [3], 10 nM; on 5HT1A receptor it was 50 nM. In test [1] (dose 2.5 mpk), the change in vivo at 2.5 mg/kg was -30.1%.

On to `COc1ccccc1N1CCN(CCn2c(=O)c3csc4c3n(c2=O)CCCCC4=O)CC1` [Example 16, 4,7,8,9,10,11-Hexahydro-4-[2-[4-(2-methoxyphenyl)piperazin-1-yl]ethyl]thieno[4,3,2-de]pyrimido[3,4-a]azocine-3,5,11-trione], for which the figures for the IC50 (at 5HT2 receptor; in test [3]; on 5HT1A receptor) were 2000 nM, 35 nM and 160 nM, respectively.

Turning to `CON=C1CCCn2c(=O)n(CCN3CCN(c4ccccc4OC)CC3)c(=O)c3csc1c32` [Example 27, 4,7,8,9-Tetrahydro-10-methoxyimino-4-[2-[4-(2-methoxyphenyl)piperazin-1-yl]ethyl]thieno[4,3,2-de]pyrimido[3,4-a]azepine-3,5-dione], at 5HT2 receptor (0.25 h, @ 10^-6, rat frontal cortex membranes, read-out: RECEPTOR BINDING 5HT-2, % @ 10^-6), the inhibition at 1 µM amounted to 11%. Further, the 50% inhibitory concentration (IC50) in test [3] was 0.14 nM; at 5HT1A receptor, 70 nM.

On to `COc1ccccc1N1CCN(CCn2c(=O)c3csc4c3n(c2=O)CCC4OC(=O)C(C)C)CC1` (stereo not shown) [Example 33, 3,4,5,7,8,9-Hexahydro-9-(2-methylpropanoyloxy)-4-[2-[4-(2-methoxyphenyl)piperazin-1-yl]ethyl]thieno[4,3,2-de]pyrido[1,2-c]pyrimidine-3,5-dione], for which the change in vivo at 5 mg/kg in test [1] is -32%.
